Tests used:
HDAC1 = HDAC1 (Homo sapiens, UniProt Q13547); assay: HDAC enzyme inhibition assay; assay type: biochemical; design: purchased BPS Bioscience 50051
Protocol: (§1) Bio-Rad) to Immobilon-FL PVDF membranes (Catalog# IPFL00005, Mill ipore Merck, Burlington, MA, USA) at 1.0 A for 30 min and treated with 5% milk-powder solution for 1 h at room temperature […]
(§2) Signaling Technology) antibody solutions in 1:1000 –1:8000 dilutions at 4 °C overnight. […]
Significance testing was performed with a one -way analysis of variance (ANOVA). Dunnett’s post -hoc test was employed to obtain significance levels of each mean compared to a reference mean value.
(§3) 2.7. HDAC Enzyme Inhibition Assay […]
[4] For test compounds and controls, serial dilutions of the respective DMSO stock solution in DMSO were prepared, and 1.0 μL /well of this serial dilution were transferred […]
(§4) into OptiPlate-96 black microplates (PerkinElmer, Waltham, […], USA). A volume of 4 µL/well assay […]
(§5) BSA) was added. In the case of HDAC1, 2, and 6, a volume of 35 μL/well of the fluorogenic substrate […]
(§6) The total assay volume of 50 μL (max. 2 % DMSO) was incubated at 37 °C for 90 min. Subsequently, 50 μL /well of trypsin (0.4 mg/mL) in trypsin buffer (50 mM Tris−HCl, pH 8.0, 100 mM NaCl) was added, followed by additional 30 min of incubation at […]
(§7) OPTIMA microplate reader (BMG labtech, Ortenburg, Germany). The half maximal inhibitory concentration (IC50) was determined by plotting dose response curves and nonlinear regression with GraphPad Prism (GraphPad Software).
2.8. MTT Cell Viability Assay […]

MDA-MB-231 cells = assay: Clonogenic growth assay; assay type: cell-based, human; conditions: 10 μM for 48 h, nine days of growth
Protocol: Figure 9 Clonogenic growth assay of DCAF11‐recruiting PROTACs. MDA‐MB‐231 cells were treated with 10 μM of the respective compound or vehicle (DMSO) for 48 hours. (A) Representative images of crystal violet stained colonies after nine days of growth. (B) Quantification of counted colonies, presented as mean ± standard deviation of three biological replicates, each performed in triplicates. Significance of quantification compared to vehicle: ns=p≥0.05; **=p≤0.01 and ***=p≤0.001. […]
Subsequently, cells were harvested and
plated in 6-well plates at a density of 750 cells per well in triplicates. The cell culture medium was
changed after five days. Nine days after plating, the colonies were carefully washed with 500 µL DPBS
and stained with 500 µL crystal violet solution (0.5% in methanol). After 30 minutes of incubation at
room temperature, the wells were gently rinsed with deionized water. After counting the formed
colonies, GraphPad Prism (GraphPad Software) was used for bar graph creation. Significance testing
was performed with a one-way analysis of variance (ANOVA). Dunnett’s post-hoc test was employed
to obtain significance levels of each mean compared to a reference mean value.

HDAC4 = HDAC4 (Homo sapiens, UniProt P56524); assay: HDAC enzyme inhibition assay; assay type: biochemical; design: purchased BPS Bioscience 50004
Protocol: as §1, §2
Significance testing was performed with a one -way analysis […]
compared to a reference mean value.
as §3
In vitro inhibitory activities against HDAC4 were measured using a previously published protocol with slight modifications. For test compounds and controls, serial dilutions of the respective DMSO stock solution in DMSO were prepared, and 1.0 μL /well of this serial dilution were transferred […]
as §4, §5, §6, §7
2.8. […]

Sequence of HDAC1 (Q13547 whole entry): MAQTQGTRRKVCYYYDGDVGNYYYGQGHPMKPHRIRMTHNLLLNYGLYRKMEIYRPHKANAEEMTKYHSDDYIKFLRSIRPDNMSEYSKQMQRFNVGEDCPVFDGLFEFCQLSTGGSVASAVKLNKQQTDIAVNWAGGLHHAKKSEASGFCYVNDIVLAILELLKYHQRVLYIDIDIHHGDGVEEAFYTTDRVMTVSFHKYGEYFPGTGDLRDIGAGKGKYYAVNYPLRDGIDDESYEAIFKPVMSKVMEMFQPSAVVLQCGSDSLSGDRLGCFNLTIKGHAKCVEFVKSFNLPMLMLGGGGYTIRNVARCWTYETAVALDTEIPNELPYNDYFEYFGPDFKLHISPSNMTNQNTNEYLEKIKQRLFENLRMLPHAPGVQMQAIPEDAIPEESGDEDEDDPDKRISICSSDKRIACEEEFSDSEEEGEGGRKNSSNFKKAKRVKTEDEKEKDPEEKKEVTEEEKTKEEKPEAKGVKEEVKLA
Sequence of HDAC4 (P56524 627-1084 limits assumed): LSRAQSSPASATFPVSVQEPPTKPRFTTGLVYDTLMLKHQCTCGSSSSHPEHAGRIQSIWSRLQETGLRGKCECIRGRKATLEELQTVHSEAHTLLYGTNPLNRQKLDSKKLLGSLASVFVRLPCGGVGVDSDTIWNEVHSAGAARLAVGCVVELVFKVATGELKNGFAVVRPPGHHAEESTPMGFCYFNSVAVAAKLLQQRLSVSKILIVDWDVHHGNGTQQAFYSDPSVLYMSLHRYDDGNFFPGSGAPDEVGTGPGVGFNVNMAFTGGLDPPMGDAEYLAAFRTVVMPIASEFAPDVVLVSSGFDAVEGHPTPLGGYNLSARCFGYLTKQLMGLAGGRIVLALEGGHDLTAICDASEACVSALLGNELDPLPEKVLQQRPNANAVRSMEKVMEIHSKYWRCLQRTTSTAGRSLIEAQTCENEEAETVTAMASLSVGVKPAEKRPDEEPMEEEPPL

| IC50 (HDAC1) | IC50 (HDAC4) | SMILES | reduction of colonies (clonogenic growth) (MDA-MB-231 cells) |
| --- | --- | --- | --- |
| 1030 ± 40 nM | 12400 ± 1500 nM | O=C(CCCCCCNC(=O)c1ccc(NC(=O)CCCCCCCCCCCN(C(=O)CCl)C(C(=O)NCc2ccccc2)c2ccc(Cl)c(Cl)c2)cc1)NO (stereo not drawn) [Compound 1j] | significant reduction of colonies |
| 159 ± 44 nM | 3260 ± 80 nM | O=C(CCCCCCNC(=O)c1ccc(N(C(=O)CCl)C(C(=O)NCc2ccccc2)c2ccc(Cl)c(Cl)c2)cc1)NO (stereo not drawn) [Compound 2] | significant reduction of colonies |

Source: publication PMC12091851, “Replacing a Cereblon Ligand by a DDB1 and CUL4 Associated Factor 11 (DCAF11) Recruiter Converts a Selective Histone Deacetylase 6 PROTAC into a Pan‐Degrader” (Chemmedchem, 2025)
